Common to all, as to type: biochemical
For test [1], the target named is T1, ENPP1 (Homo sapiens, UniProt P22413).
T1 sequence (P22413 1-925): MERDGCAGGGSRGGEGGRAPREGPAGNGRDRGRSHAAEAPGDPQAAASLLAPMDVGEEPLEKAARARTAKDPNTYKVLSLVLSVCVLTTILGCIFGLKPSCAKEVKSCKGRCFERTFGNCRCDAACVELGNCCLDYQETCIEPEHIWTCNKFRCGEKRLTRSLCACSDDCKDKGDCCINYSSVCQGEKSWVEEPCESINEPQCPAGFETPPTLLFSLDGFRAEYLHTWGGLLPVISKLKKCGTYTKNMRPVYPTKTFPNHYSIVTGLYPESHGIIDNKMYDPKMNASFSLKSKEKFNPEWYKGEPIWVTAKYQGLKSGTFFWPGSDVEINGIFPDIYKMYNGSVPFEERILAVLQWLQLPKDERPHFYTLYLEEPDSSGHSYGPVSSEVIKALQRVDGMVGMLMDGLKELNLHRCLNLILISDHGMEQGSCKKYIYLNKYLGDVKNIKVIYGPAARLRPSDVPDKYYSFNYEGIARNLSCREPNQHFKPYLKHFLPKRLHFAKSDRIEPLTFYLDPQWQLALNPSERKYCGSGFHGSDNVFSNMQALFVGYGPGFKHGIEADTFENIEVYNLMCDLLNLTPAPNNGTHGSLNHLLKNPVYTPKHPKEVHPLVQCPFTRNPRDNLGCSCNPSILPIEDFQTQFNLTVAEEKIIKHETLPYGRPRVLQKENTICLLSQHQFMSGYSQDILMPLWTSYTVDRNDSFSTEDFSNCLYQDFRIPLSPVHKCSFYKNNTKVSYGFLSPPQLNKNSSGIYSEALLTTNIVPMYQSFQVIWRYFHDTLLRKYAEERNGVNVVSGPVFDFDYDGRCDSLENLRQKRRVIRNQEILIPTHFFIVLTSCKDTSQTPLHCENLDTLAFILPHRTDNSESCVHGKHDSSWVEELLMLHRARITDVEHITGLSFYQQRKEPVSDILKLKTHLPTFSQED
The experiment in a line: Indirect quantitation of 2',3'-cGAMP hydrolysis (AMP-Glo Assay kit). Conditions: cGAMP substrate; Ki from IC50 by Cheng-Prusoff; read-out: ENPP1 Inhibition -cGAMP: Ki.

In test [2] the target is T1, ENPP1. The experiment in a line: ENPP1 enzyme assay with cGAMP substrate (AMP-Glo). The arrangement: purchased R&D Systems. Conditions: read-out: cGAMP: % Inhibition at 1 µM. An excerpt: Example B1: ENPP1 Enzyme Assay With cGAMP Substrate
Ectonucleotide pyrophosphatase/phosphodiesterase 1 (ENPP-1) is a transmembrane glycoprotein that hydrolyzes nucleotides and nucleotide derivatives with the formation of nucleoside-5’-monophosphates. […] The 5’-AMP formed from the reaction is detected using the AMP-Glo® Kit (Promega). The assay kit contains two reagents. The first reagent terminates the enzymatic reaction, removes ATP (using adenylyl cyclase), and converts 5’-AMP produced into ADP (using polyphosphate: AMP phosphotransferase). The second reagent converts ADP to ATP (using adenylate kinase) and generates light from ATP using the luciferin/luciferase reaction.
Different concentrations of ENPP1 inhibitors are pre-incubated with 5 ng/well of human ENPP-1 enzyme (R&D Systems) for 15 minutes at 37° C. The reaction is initiated by adding 20 µM 2’3’-cGAMP and incubating for 30 minutes at 37° C. The final assay reaction mixture contains a buffer of 50 mM Tris pH 8.0, 250 mM NaCl, 0.5 mM CaCl2, 1 µM ZnCl2 and 1% DMSO. At the end of the incubation, the reaction is stopped by adding 12 µl of AMP-Glo reagent-1 and mixing the reaction uniformly for 5 minutes, followed by incubation at room temperature for one hour. Then 25 µl of AMP Glo reagent-2 is added to the reaction, mixed uniformly with a pipette, and incubated at room temperature for one hour to convert the ADP formed from reagent-1 to ATP and light. The generated light is measured in a Perkin Elmer Victor® instrument.
The IC50 values for percent inhibition versus compound concentration are determined by fitting the inhibition curves using a four-parameter variable slope model in GraphPad Prism® software. Ki values are derived from the IC50 values using the Cheng-Prusoff equation: […]

For test [3], the target named is T1, ENPP1. The experiment in a line: ENPP1 enzyme assay with AMP-pNP substrate (hydrolysis of ATP analog). Conditions: AMP-pNP substrate (ATP analog); Ki from IC50 by Cheng-Prusoff; read-out: ENPP1 Inhibition _AMP-pNP: Ki. The method in brief: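 Human recombinant ENPP1 (60 ng/well) with 300 µM AMP-pNP in 50 mM Tris-HCl pH 8.5, 250 mM NaCl, 0.5 mM CaCl2, 1 µM ZnCl2, 0.1% DMSO, 20 min at 37 °C.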

For test [4], the target named is T1, ENPP1. The experiment in a line: Substrate selectivity ratio, inhibition of cGAMP hydrolysis versus ATP hydrolysis. Conditions: ratio Ki AMP-pNP / Ki cGAMP. As for the experimental part: The selectivity ratios for inhibition of cGAMP hydrolysis versus ATP hydrolysis were then calculated as follows: […]

Experimental findings from patent publication US20230183239A1, “ECTONUCLEOTIDE PYROPHOSPHATASE-PHOSPHODIESTERASE 1 (ENPP-1) INHIBITORS AND USES THEREOF” (AbbVie Inc., priority 2017, published 2023) are described below.

A word on the Ki: it is a measure of affinity in units of concentration, obtained from inhibition or displacement. Broadly, the inhibition is the change of the read-out against control, counted positive when it falls.

As for `NS(=O)(=O)NCCC1CCN(c2ccnc(NC(=O)c3cccnc3)n2)CC1` [Example 7, N-(4-(4-(2-(sulfamoylamino)ethyl)piperidin-1-yl)pyrimidin-2-yl)nicotinamide], the Ki in test [1] is > 1000 nM. In addition, the inhibition at 1 µM in test [2] is < 25%.

As to `NS(=O)(=O)NCCC1CCN(c2cc(-c3ccc4ncoc4c3)ncn2)CC1` [Example 9, N-(2-(1-(6-(benzo[d]oxazol-6-yl)pyrimidin-4-yl)piperidin-4-yl)ethyl)sulfamide], the Ki in test [1] is > 1000 nM. In test [2], the inhibition at 1 µM was < 25%.

For `NS(=O)(=O)NCCC1CCN(c2ccnc(Nc3cccnc3)n2)CC1` [Example 12, N-(2-(1-(2-(pyridin-3-ylamino)pyrimidin-4-yl)piperidin-4-yl)ethyl)sulfamide], in test [1], the Ki was > 1000 nM. Besides, the inhibition at 1 µM in test [2] is < 25%.

With `COc1ccc2c(-c3ccc(CNS(N)(=O)=O)s3)ccnc2c1` [Example 389, N-((5-(7-methoxyquinolin-4-yl)thiophen-2-yl)methyl)sulfamide], the Ki in test [3] and in test [1] was < 100 nM in each case. For the same molecule, the “Substrate Selectivity: Ki_AMP-pNP/Ki_cGAMP” value (“Substrate Selectivity” below) in test [4] is on record as 34.

On to `COc1ccc2c(N3CCc4cc(NS(N)(=O)=O)ccc43)ncnc2c1` [Example 392, N-(1-(7-methoxyquinazolin-4-yl)indolin-5-yl)sulfamide], for which the Ki is > 1000 nM in test [3] and < 100 nM in test [1]. Further, the “Substrate Selectivity” value in test [4] is listed as >133.

For `COc1cc2nccc(Oc3ccc(S(N)(=O)=O)cc3)c2cn1` [Example 393, 4-((7-methoxy-1,6-naphthyridin-4-yl)oxy)benzenesulfonamide], the Ki in test [3] is 100 to 1000 nM; in test [1] it was < 100 nM. Moreover, the “Substrate Selectivity” value in test [4] was found to be 51.

In the case of `COc1cc(F)c2c(-c3ccc(CNS(N)(=O)=O)cc3)ccnc2c1` [Example 394, N-(4-(5-fluoro-7-methoxyquinolin-4-yl)benzyl)sulfamide], the Ki in test [3] is > 1000 nM; in test [1] it was < 100 nM. In test [4], the “Substrate Selectivity” value is >95.

As for `COc1cc2ncc(C#N)c(-c3ccc(CNS(N)(=O)=O)cc3)c2cc1F` [Example 395, N-(4-(3-cyano-6-fluoro-7-methoxyquinolin-4-yl)benzyl)sulfamide], the Ki was 100 to 1000 nM in test [3] and < 100 nM in test [1]. The “Substrate Selectivity” value in test [4] was >31.

For `COc1ccc2c(-c3ccc(NS(N)(=O)=O)cc3)ccnc2c1` [Example 396, N-(4-(7-methoxyquinolin-4-yl)phenyl)sulfamide], the Ki was > 1000 nM in test [3] and 100 to 1000 nM in test [1]. Also, the “Substrate Selectivity” value in test [4] was >20.

In the case of `COc1ccc2c(Oc3ccc(NS(N)(=O)=O)cc3)cc(C)nc2c1` [Example 397, N-(4-((7-methoxy-2-methylquinolin-4-yl)oxy)phenyl)sulfamide], the Ki in test [3] was 100 to 1000 nM; in test [1] it was < 100 nM. The “Substrate Selectivity” value in test [4] was >13.

As for `COc1ccc2c(-c3ccc4c(c3)CN(S(N)(=O)=O)C4)ccnc2c1` [Example 402, 5-(7-methoxyquinolin-4-yl)isoindoline-2-sulfonamide], the Ki is 100 to 1000 nM in test [3] and < 100 nM in test [1]. Also, the “Substrate Selectivity” value in test [4] came to 46.

In the case of `COc1ccc2c(-c3ccc(CCNS(N)(=O)=O)cc3)ccnc2c1` [Example 403, N-(4-(7-methoxyquinolin-4-yl)phenethyl)sulfamide], the Ki was > 1000 nM in test [3] and 100 to 1000 nM in test [1]. The “Substrate Selectivity” value in test [4] is reported as >227.

Take `COc1ccc2c(Oc3ccc4c(c3)CCN4S(N)(=O)=O)ccnc2c1` [Example 404, 5-((7-methoxyquinolin-4-yl)oxy)indoline-1-sulfonamide]: the inhibitory constant (Ki) in test [3] is 100 to 1000 nM; in test [1], < 100 nM. The “Substrate Selectivity” value in test [4] is on record as >103.

As to `COc1ccc2c(-c3ccc(CS(N)(=O)=O)cc3)ccnc2c1` [Example 406, (4-(7-methoxy quinolin-4-yl)phenyl)methane sulfonamide], the Ki was > 1000 nM in test [3] and 100 to 1000 nM in test [1]. Also, in test [4], the “Substrate Selectivity” value is >65.

Take `COc1ccc2c(Oc3ccc(NS(N)(=O)=O)cc3)c(C(F)(F)F)cnc2c1` [Example 407, N-(4-((7-methoxy-3-(trifluoromethyl)quinolin-4-yl)oxy)phenyl)sulfamide]: the Ki in test [3] is > 1000 nM; in test [1] it was 100 to 1000 nM. Moreover, in test [4], the “Substrate Selectivity” value is >14.

For `COc1ccc2c(-c3ccc4c(c3F)CN(S(N)(=O)=O)CC4)ccnc2c1` [Example 410, 8-fluoro-7-(7-methoxyquinolin-4-yl)-3,4-dihydroisoquinoline-2(1H)-sulfamide], the Ki in test [3] is 100 to 1000 nM; in test [1], < 100 nM. Also, the “Substrate Selectivity” value in test [4] is >42.

Take `COc1cc(F)c2c(N3CCc4cc(NS(N)(=O)=O)ccc43)ccnc2c1` [Example 412, N-(1-(5-fluoro-7-methoxyquinolin-4-yl)indolin-5-yl)sulfamide]: the Ki in test [3] is > 1000 nM; in test [1] it was 100 to 1000 nM. Besides, in test [4], the “Substrate Selectivity” value is on record as >271.

On to `COc1ccc2c(-n3cc(Cl)c4cc(NS(N)(=O)=O)ccc43)ccnc2c1` [Example 413, N-(3-chloro-1-(7-methoxyquinolin-4-yl)-1H-indol-5-yl)sulfamide], for which the Ki was > 1000 nM in test [3] and 100 to 1000 nM in test [1]. For the same molecule, the “Substrate Selectivity” value in test [4] is reported as >153.

Regarding `COc1ccc2c(-c3ccc(C(C)NS(N)(=O)=O)cc3)ccnc2c1` (stereo not drawn) [Example 416, N-(1-(4-(7-methoxyquinolin-4-yl)phenyl)ethyl)sulfamide], the Ki was 100 to 1000 nM in test [3] and < 100 nM in test [1]. The “Substrate Selectivity” value in test [4] came out at 50.

Turning to `COc1ccc2c(NCc3ccc(NS(N)(=O)=O)cc3)ccnc2n1` [Example 417, N-(4-(((7-methoxy-1,8-naphthyridin-4-yl)amino)methyl)phenyl)sulfamide], the Ki in test [3] and in test [1] was < 100 nM each time. For the same molecule, in test [4], the “Substrate Selectivity” value came to 30.

In the case of `COc1ccc2c(N3CCc4cc(N(C)S(N)(=O)=O)ccc43)ccnc2c1` [Example 418, N-(1-(7-methoxyquinolin-4-yl)indolin-5-yl)-N-methylsulfamide], the values for the Ki in test [3] and in test [1] were 100 to 1000 nM and < 100 nM, respectively. In addition, in test [4], the “Substrate Selectivity” value was >40.

As to `COc1ccc2c(-c3ccc(CNS(N)(=O)=O)cc3Cl)ccnc2c1` [Example 419, N-(3-chloro-4-(7-methoxyquinolin-4-yl)benzyl)sulfamide], the values for the Ki in test [3] and in test [1] were > 1000 nM and < 100 nM, respectively. In test [4], the “Substrate Selectivity” value is given as >70.
